Source: publication PMC11212140, “Molecular Bidents with Two Electrophilic Warheads as a New Pharmacological Modality” (ACS Central Science, 2024)

Assays:
MKK7 = biological target: T1, MKK7 (Homo sapiens, UniProt O14733); test: MKK7 binding, KdELECT assays (DiscoverX); conditions: KdELECT
T1 construct: purchased DiscoverX
T1 sequence (O14733 1-419): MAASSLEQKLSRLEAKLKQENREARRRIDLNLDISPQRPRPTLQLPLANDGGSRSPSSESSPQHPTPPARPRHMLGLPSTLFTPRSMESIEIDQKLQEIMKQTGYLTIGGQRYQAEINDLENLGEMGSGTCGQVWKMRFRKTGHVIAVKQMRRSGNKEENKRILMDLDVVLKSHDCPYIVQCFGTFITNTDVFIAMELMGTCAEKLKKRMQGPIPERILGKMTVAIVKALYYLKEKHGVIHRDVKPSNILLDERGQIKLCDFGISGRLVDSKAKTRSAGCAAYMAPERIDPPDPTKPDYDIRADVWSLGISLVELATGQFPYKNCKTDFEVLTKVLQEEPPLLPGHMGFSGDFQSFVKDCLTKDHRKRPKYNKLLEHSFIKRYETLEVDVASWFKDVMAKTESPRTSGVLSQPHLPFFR
Text: Figure 2 ZNL-8162 is a molecular bident for MKK7. (A) Compound structures for MKK7-targeting molecular bident (ZNL-8162) and its relatives lacking one or both cysteine-reactive groups. (B) Covalent modeling for ZNL-8162 engagement of MKK7(PDB: 6YG3). (C) MS/MS spectrum of ZNL-8162 covalently modifying Cys218 and Cys276 of MKK7. Red and yellow circles indicate ions of type y for sequences marked (1) and (2), respectively. Blue circles indicate ions of b for sequence (1). *, carbamidomethyl cysteine, Δ, oxidized methionine. (D) MKK7 binding data were obtained from KdELECT assays (DiscoverX). Data are presented as mean ± s.d. of n = 2 biologically independent samples.
Table S2. […]

EGFR = test system: T2, EGFR; test: Cellular target engagement assays (competitive pulldown); format: cell-based; conditions: EGFR^L858R Ba/F3 cells, 6 h pretreatment
T2 construct: expressed in transfected cells; host or cells: Ba/F3 (murine pro-B cells transduced with an EGFR mutant expression vector)
Description: Figure 4 ZNL-0056 covalently engages Cys775 and Cys797 in EGFR Ba/F3 cells. (A) Carton of competition EGFR pulldown strategy to test covalent EGFR engagement in cells. (B) Competitive pulldown assay in EGFR^L858R Ba/F3 cells treated with ZNL-0056 at the indicated concentrations for 6 h. Cell lysates were incubated with bio-osimertinib. (C) Competitive pulldown assay in EGFR^L858R Ba/F3 cells treated with ZNL-0056 at the indicated concentrations for 6 h. Cell lysates were incubated with bio-ZNL-0013, which competes for the binding pocket of the target kinase. (D) Competitive pulldown assay in EGFR^L858R/C797S Ba/F3 cells treated with ZNL-0056 at the indicated concentrations for 6 h. Cell lysates were incubated with bio-ZNL-0013, which competes for the binding pocket of the target kinase. Western blotting showing the pulldown (PD) or input (total lysate) of EGFR. […]
treatment. Cell viability was determined by using CellTiter-Glo (Promega #G7571) according to the manufacturer’s instructions, measuring luminescence using an Envision plate-reader (PerkinElmer Inc.). […]
After 6 hours treatment, cells were pelleted, washed with PBS once and lysed with IP lysis buffer (25mMTris-HCl pH 7.4, 150mM NaCl, 1 mM EDTA, 1% NP-40 and 5% glycerol) (Thermo Fisher Scientific, Cat#87788) containing protease/phosphatase inhibitor cocktail (Roche). The protein concentrations were measured by BCA analysis (Pierce). […]

MEK5 = MEK5 (Homo sapiens, UniProt Q13163); test: LanthaScreen Binding activity assay; conditions: read-out: IC50 (nM) against MEK5
Text: (§1) Table S2. Biochemical activities against a panel of kinase targets […]
(§2) aIC50 (nM) against EGFR L858R, BTK, JAK3, ITK and BLK were obtained with Z’-LYTE biochemical assay. bIC50 (nM) against MEK5 was obtained with LanthaScreen Binding activity assay. c Kd (nM) of MKK7 were obtained from KdELECT assays (DiscoverX). […]
(§3) (1 picture or pasted object on this page, not shown here)

BLK = BLK (Homo sapiens, UniProt P51451); test: Z'-LYTE biochemical assay; conditions: read-out: IC50 (nM) against BLK
Text: as §1, §2, §3

ITK = ITK (Homo sapiens, UniProt Q08881); test: Z'-LYTE biochemical assay; conditions: read-out: IC50 (nM) against ITK
Text: as §1, §2, §3

EGFR L858R = EGFR L858R (Homo sapiens, UniProt P00533, L858R); test: Z'-LYTE biochemical assay; conditions: read-out: IC50 (nM) against EGFR L858R
Text: as §1, §2, §3

BTK = BTK (Homo sapiens, UniProt Q06187); test: Z'-LYTE biochemical assay; conditions: read-out: IC50 (nM) against BTK
Text: as §1, §2, §3

JAK3 = JAK3 (Homo sapiens, UniProt P52333); test: Z'-LYTE biochemical assay; conditions: read-out: IC50 (nM) against JAK3
Text: as §1, §2, §3

Sequence of ITK (Q08881 whole entry): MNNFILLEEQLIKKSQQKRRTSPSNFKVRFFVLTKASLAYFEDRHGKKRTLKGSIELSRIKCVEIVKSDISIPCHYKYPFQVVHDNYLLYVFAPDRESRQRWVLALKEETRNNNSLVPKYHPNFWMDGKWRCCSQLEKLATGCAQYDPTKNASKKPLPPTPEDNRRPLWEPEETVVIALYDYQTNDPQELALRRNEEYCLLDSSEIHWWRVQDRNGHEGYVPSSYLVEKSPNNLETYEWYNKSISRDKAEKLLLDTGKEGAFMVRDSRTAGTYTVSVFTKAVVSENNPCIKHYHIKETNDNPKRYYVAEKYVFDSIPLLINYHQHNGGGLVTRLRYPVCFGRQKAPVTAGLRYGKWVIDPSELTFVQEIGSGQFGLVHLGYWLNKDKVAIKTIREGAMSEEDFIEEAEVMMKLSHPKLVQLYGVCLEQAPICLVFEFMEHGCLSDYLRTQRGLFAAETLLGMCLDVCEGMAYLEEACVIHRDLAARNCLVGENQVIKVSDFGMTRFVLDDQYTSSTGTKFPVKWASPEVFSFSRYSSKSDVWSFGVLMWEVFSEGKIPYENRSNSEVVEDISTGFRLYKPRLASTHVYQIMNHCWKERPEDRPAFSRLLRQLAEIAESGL
Sequence of BLK (P51451 whole entry): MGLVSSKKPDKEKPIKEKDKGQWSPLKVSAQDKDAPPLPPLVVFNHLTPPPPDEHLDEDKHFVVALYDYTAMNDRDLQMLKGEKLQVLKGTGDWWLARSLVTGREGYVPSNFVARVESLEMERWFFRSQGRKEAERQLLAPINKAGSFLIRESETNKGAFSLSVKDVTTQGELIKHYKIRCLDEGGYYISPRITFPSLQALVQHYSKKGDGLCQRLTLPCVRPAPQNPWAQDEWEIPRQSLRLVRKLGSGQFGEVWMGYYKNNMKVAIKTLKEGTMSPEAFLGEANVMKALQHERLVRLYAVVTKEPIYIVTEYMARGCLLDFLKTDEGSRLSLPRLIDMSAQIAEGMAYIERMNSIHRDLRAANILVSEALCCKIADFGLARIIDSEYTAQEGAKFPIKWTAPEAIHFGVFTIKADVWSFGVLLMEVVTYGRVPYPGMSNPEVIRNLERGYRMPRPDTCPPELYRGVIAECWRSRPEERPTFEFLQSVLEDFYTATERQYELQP
Sequence of MEK5 (Q13163 whole entry, species assumed): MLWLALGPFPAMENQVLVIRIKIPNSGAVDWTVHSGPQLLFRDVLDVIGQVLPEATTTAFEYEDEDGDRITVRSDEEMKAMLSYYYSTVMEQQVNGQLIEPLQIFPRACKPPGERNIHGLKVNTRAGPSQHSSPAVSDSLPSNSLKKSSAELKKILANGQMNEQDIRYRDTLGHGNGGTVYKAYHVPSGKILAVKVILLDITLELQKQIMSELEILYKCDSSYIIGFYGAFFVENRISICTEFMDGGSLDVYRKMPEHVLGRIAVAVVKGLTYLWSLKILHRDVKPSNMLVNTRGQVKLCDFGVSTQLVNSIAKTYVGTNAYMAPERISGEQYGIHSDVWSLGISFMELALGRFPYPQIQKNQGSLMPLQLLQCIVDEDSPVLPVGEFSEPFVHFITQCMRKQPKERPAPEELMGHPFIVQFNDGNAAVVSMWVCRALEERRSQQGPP
Sequence of BTK (Q06187 whole entry): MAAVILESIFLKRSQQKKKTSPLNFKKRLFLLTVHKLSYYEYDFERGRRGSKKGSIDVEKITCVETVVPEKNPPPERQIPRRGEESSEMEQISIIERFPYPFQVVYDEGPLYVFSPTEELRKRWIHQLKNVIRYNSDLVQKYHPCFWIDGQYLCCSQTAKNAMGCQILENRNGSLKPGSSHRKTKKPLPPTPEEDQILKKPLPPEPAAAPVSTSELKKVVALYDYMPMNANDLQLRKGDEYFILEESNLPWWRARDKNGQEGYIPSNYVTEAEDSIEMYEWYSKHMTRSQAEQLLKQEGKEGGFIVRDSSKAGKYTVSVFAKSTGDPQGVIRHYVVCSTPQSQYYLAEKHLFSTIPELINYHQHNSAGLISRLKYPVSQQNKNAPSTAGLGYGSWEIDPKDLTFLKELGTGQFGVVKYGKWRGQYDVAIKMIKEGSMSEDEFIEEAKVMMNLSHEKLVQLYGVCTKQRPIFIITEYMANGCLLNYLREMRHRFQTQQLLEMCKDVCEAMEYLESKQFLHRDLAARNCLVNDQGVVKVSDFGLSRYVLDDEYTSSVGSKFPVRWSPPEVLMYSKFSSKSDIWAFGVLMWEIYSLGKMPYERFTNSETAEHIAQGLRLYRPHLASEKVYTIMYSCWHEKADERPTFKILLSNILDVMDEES
Sequence of EGFR L858R (P00533 25-1210 L858R): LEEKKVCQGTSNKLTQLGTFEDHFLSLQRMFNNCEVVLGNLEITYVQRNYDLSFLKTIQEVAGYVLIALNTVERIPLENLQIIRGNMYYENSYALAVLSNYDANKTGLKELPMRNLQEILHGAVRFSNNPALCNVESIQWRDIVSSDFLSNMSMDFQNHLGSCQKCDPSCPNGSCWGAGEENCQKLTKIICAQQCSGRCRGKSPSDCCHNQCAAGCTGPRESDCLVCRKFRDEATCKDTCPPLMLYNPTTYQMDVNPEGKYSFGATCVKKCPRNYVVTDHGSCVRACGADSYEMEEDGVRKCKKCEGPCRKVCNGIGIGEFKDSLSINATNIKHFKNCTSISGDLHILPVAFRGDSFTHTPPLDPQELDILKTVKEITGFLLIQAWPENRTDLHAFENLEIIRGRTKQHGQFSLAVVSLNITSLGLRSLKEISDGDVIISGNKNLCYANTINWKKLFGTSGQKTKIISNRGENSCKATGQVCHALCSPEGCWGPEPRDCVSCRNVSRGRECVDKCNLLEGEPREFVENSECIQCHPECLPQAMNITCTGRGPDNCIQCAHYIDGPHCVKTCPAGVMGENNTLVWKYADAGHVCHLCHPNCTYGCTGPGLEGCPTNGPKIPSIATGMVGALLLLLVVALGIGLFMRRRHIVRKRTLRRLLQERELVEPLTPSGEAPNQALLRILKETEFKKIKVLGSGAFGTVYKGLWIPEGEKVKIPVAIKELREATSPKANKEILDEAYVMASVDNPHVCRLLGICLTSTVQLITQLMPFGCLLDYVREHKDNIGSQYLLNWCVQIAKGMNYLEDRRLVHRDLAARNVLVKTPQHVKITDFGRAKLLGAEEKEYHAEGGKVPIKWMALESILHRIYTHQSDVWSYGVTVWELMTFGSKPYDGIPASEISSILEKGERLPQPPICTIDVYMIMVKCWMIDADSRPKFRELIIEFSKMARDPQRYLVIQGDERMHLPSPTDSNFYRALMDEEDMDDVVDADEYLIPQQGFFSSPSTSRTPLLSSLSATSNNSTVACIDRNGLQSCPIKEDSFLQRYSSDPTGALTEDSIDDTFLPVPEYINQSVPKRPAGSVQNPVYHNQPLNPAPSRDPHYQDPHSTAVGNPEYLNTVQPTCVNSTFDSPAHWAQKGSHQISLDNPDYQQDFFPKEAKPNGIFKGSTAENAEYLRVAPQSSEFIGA
Sequence of JAK3 (P52333 whole entry): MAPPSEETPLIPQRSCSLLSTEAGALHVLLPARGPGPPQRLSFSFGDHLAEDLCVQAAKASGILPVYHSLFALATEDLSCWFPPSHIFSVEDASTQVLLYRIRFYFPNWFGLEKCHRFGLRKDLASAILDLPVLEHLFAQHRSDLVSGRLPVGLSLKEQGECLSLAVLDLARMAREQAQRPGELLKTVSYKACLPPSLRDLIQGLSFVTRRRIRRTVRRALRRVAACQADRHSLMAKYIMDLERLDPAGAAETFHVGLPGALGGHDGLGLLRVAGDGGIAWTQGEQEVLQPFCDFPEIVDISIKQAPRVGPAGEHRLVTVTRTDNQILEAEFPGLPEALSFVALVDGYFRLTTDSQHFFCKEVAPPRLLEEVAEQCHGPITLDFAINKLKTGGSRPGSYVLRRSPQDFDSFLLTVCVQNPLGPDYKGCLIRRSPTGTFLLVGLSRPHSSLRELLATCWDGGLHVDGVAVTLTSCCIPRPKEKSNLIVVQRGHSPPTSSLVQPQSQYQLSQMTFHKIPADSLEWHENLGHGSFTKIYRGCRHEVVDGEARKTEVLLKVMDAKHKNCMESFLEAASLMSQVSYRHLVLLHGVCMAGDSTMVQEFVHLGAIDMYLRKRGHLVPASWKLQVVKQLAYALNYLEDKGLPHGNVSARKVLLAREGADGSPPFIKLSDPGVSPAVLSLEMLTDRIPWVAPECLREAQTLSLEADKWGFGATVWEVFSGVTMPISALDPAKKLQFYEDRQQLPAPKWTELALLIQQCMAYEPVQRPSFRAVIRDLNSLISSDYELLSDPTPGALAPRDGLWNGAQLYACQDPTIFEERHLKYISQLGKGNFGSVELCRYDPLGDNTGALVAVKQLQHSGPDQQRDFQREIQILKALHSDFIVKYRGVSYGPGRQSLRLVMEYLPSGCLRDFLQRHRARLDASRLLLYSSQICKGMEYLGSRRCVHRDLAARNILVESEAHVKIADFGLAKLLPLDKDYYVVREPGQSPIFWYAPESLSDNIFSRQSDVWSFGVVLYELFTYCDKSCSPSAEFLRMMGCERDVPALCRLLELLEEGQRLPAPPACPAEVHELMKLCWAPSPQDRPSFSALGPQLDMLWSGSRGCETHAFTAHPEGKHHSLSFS

C=CC(=O)Nc1cc(C(=O)Nc2nc3cccc(C)c3n2[C@@H]2CCCCN(C(=O)C=C)C2)cs1 [ZNL-0056]
Kd (MKK7): 36 nM | prevention of EGFR binding to osimertinib-biotin target-engagement probe (EGFR): dose-dependent manner | IC50 (MEK5): 2500 nM | IC50 (BLK): 3.17 nM | IC50 (ITK): 7.81 nM | IC50 (EGFR L858R): 6.21 nM | IC50 (BTK): 1.13 nM | IC50 (JAK3): 5.79 nM
